Reference: patent US9067911B2, “Piperidine derivatives” (Hoffmann-La Roche Inc., priority 2009, dated 2015)
Structures can show the parent of a compound that is named as a salt.

Target: T1, mGlyT-1b (Mus musculus, UniProt P28571)
T1 construct: host or cells: Flp-in-CHO
T1 sequence (P28571 1-651 isoform P28571-2): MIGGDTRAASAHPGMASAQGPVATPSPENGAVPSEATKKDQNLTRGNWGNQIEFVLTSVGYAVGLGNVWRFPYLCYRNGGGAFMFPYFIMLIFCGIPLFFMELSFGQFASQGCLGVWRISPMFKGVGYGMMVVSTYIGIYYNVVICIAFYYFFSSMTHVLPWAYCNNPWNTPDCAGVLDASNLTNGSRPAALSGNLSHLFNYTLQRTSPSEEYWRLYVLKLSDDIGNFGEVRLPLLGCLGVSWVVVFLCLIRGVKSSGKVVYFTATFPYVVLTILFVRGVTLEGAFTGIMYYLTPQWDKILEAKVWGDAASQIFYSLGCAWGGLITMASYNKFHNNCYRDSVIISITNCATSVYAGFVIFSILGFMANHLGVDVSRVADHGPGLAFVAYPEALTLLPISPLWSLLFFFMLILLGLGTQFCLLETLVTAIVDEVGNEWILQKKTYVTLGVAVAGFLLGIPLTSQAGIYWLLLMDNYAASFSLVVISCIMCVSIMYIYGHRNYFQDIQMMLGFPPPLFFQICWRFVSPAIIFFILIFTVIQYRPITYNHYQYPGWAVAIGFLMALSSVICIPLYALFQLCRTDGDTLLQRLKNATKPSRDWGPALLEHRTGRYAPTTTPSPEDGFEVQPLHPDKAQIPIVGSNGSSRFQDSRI
Assay: Glycine uptake inhibition assay (mGlyT-1b)
Type: cell-based
Details: [3H]-glycine uptake, Flp-in-CHO cells stably transfected with mGlyT1b cDNA, 20 min preincubation at 22° C.
Procedure: Nutrient mixture F-12 (Gibco Life-technologies), fetal bovine serum (FBS) 5%, (Gibco life technologies), Penicillin/Streptomycin 1% (Gibco life technologies), Hygromycin 0.6 mg/ml (Gibco life technologies), Glutamine 1 mM Gibco life technologies)
150 mM NaCl, 10 mM Hepes-Tris, pH 7.4, 1 mM CaCl2, 2.5 mM KCl, 2.5 mM MgSO4, 10 mM (+) D-glucose.
Flp-in™-CHO (Invitrogen Cat n° R758-07) cells stably transfected with mGlyT1b cDNA.
Glycine Uptake Inhibition Assay (mGlyT-1b)
On day 1 mammalian cells, (Flp-in™-CHO), transfected with mGlyT-1b cDNA, were plated at the density of 40,000 cells/well in complete F-12 medium, without hygromycin in 96-well culture plates. On day 2, the medium was aspirated and the cells were washed twice with uptake buffer (UB). The cells were then incubated for 20 min at 22° C. with either (i) no potential competitor, (ii) 10 mM non-radioactive glycine, (iii) a concentration of a potential inhibitor. A range of concentrations of the potential inhibitor was used to generate data for calculating the concentration of inhibitor resulting in 50% of the effect (e.g. IC50, the concentration of the competitor inhibiting glycine uptake of 50%). A solution was then immediately added containing [^3H]-glycine 60 nM (11-16 Ci/mmol) and 25 μM non-radioactive glycine. The plates were incubated with gentle shaking and the reaction was stopped by aspiration of the mixture and washing (three times) with ice-cold UB. The cells were lysed with scintillation liquid, shaken 3 hours and the radioactivity in the cells was counted using a scintillation counter.

Compound | IC50 [nM]
CN1CCCC(NC(=O)c2c(F)cc(C(F)(F)F)cc2C(F)(F)F)(c2ccccc2)C1 (racemic) [Example 5, rac-2-Fluoro-N-(1-methyl-3-phenyl-piperidin-3-yl)-4,6-bis-trifluoromethyl-benzamide] | 107
COc1cc(C(F)(F)F)cc(SC)c1C(=O)NC1(c2ccc(Cl)cc2)CCCN(C)C1 (racemic) [Example 28, rac-N-[3-(4-Chloro-phenyl)-1-methyl-piperidin-3-yl]-2-methoxy-6-methylsulfanyl-4-trifluoromethyl-benzamide] | 27.7
CN1CCCC(NC(=O)c2ccc(C(F)(F)F)cc2C2CCC2)(c2ccccc2)C1 (racemic) [Example 66, rac-2-Cyclobutyl-N-(1-methyl-3-phenyl-piperidin-3-yl)-4-trifluoromethyl-benzamide hydrochloride] | 243
COc1cc(C(F)(F)F)cc(SC)c1C(=O)NC1(c2ccccc2)CCCN(C)C1 (racemic) [Example 18, rac-2-Methoxy-N-(1-methyl-3-phenyl-piperidin-3-yl)-6-methylsulfanyl-4-trifluoromethyl-benzamide] | 24.4
COc1cc(C(F)(F)F)cc(SC)c1C(=O)NC1(c2ccccc2F)CCCN(C)C1 (racemic) [Example 68, rac-N-[3-(2-Fluoro-phenyl)-1-methyl-piperidin-3-yl]-2-methoxy-6-methylsulfanyl-4-trifluoromethyl-benzamide] | 175
CN1CCC[C@](NC(=O)c2ccc(C(F)(F)F)cc2C2CC2)(c2ccccc2)C1 (stereo in doubt) [Example 56, 2-Cyclopropyl-N-((S)-1-methyl-3-phenyl-piperidin-3-yl)-4-trifluoromethyl-benzamide hydrochloride] | 162
COc1cc(C(F)(F)F)cc(SC)c1C(=O)NC1(c2ccccc2)CCCN(C(C)C)C1 (racemic) [Example 55, rac-N-(1-Isopropyl-3-phenyl-piperidin-3-yl)-2-methoxy-6-methylsulfanyl-4-trifluoromethyl-benzamide; hydrochloride] | 77.7
COc1cc(C(F)(F)F)cc(SC)c1C(=O)NC1(c2ccc(F)c(C)c2)CCCN(C)C1 (racemic) [Example 97, rac-N-[3-(4-Fluoro-3-methyl-phenyl)-1-methyl-piperidin-3-yl]-2-methoxy-6-methylsulfanyl-4-trifluoromethyl-benzamide] | 185
COc1cc(C(F)(F)F)cc(SC)c1C(=O)NC1(c2ccccc2)CN(C)CC(C)(C)C1 (racemic) [Example 99, rac-2-Methoxy-6-methylsulfanyl-4-trifluoromethyl-N-(1,5,5-trimethyl-3-phenyl-piperidin-3-yl)-benzamide hydrochloride] | 36.6
COc1cc(C(F)(F)F)cc(SC)c1C(=O)NC1(c2ccccc2)CN(C)CC(C)(C)C1 (single isomer, unassigned) [Example 116, 2-Methoxy-6-methylsulfanyl-4-trifluoromethyl-N-((S or R)-1,5,5-trimethyl-3-phenyl-piperidin-3-yl)-benzamide] | 35.8
COc1cc(C(F)(F)F)cc(SC)c1C(=O)NC1(c2cccnc2)CCCN(C)C1 (racemic) [Example 73, rac-2-Methoxy-6-methylsulfanyl-N-(1-methyl-1,4,5,6-tetrahydro-2H-[3,3′]bipyridinyl-3-yl)-4-trifluoromethyl-benzamide] | 54.4
CCc1cc(C(F)(F)F)ccc1C(=O)NC1(c2cccnc2)CCCN(C)C1 (racemic) [Example 74, rac-2-Ethyl-N-(1-methyl-1,4,5,6-tetrahydro-2H-[3,3′]bipyridinyl-3-yl)-4-trifluoromethyl-benzamide hydrochloride] | 123

Continued, values first:

IC50 [nM] | Compound
40.9 | COc1cc(C(F)(F)F)cc(SC)c1C(=O)N[C@@]1(c2ccccc2)C[C@H](OC)CN(C)C1 (stereo in doubt) [Example 108, 2-Methoxy-N-((3R,5S) or (3S,5R)-5-methoxy-1-methyl-3-phenyl-piperidin-3-yl)-6-methylsulfanyl-4-trifluoromethyl-benzamide]
57.3 | COc1cc(C(F)(F)F)cc(SC)c1C(=O)NC1(c2ccccc2F)CCCN(C)C1 (single isomer, unassigned) [Example 111, N-[(R or S)-3-(2-Fluoro-phenyl)-1-methyl-piperidin-3-yl]-2-methoxy-6-methylsulfanyl-4-trifluoromethyl-benzamide]
10 | Cl.[2H]C([2H])([2H])N1CCC[C@@](NC(=O)c2c(OC)cc(C(F)(F)F)cc2SC)(c2ccccc2)C1 (single isomer, unassigned) [Example 63, [2H-methyl]-2-Methoxy-N—(R) or (S)-1-methyl-3-phenyl-piperidin-3-yl)-6-methylsulfanyl-4-trifluoromethyl-benzamide hydrochloride]
138 | COc1cc(C(F)(F)F)cc(C(F)(F)F)c1C(=O)NC1(c2ccccc2)CCCN(C)C1 (racemic) [Example 16, rac-2-Methoxy-N-(1-methyl-3-phenyl-piperidin-3-yl)-4,6-bis-trifluoromethyl-benzamide]
151 | COc1cc(C(F)(F)F)cc(SC)c1C(=O)N[C@]1(c2ccccc2)C[C@@H](OC)CN(C)C1 (stereo in doubt) [Example 109, 2-Methoxy-N-((3S,5R) or (3R,5S)-5-methoxy-1-methyl-3-phenyl-piperidin-3-yl)-6-methylsulfanyl-4-trifluoromethyl-benzamide]
13 | CN1CCCC(NC(=O)c2ccc(C(F)(F)F)cc2C2CC2)(c2ccccc2)C1 (racemic) [Example 13, rac-2-Cyclopropyl-N-(1-methyl-3-phenyl-piperidin-3-yl)-4-trifluoromethyl-benzamide]
56.4 | COc1cc(C(F)(F)F)cc(SC)c1C(=O)NC1(c2cc(F)ccc2F)CCCN(C)C1 (single isomer, unassigned) [Example 113, N-[(R or S)-3-(2,5-Difluoro-phenyl)-1-methyl-piperidin-3-yl]-2-methoxy-6-methylsulfanyl-4-trifluoromethyl-benzamide]
184 | CN1CCCC(NC(=O)c2ccc(C(F)(F)F)cc2OC(F)F)(c2ccccc2)C1 (racemic) [Example 39, rac-2-Difluoromethoxy-N-(1-methyl-3-phenyl-piperidin-3-yl)-4-trifluoromethyl-benzamide]
51.5 | COc1cc(C(F)(F)F)cc(SC)c1C(=O)NC1(c2ccc(F)c(F)c2)CCCN(C)C1 (racemic) [Example 95, rac-N-[3-(3,4-Difluoro-phenyl)-1-methyl-piperidin-3-yl]-2-methoxy-6-methylsulfanyl-4-trifluoromethyl-benzamide]
20.2 | COc1cc(C(F)(F)F)cc(SC)c1C(=O)NC1(c2ccccc2)CCCN(C)C1C (racemic) [Example 11, rac-N-(1,2-Dimethyl-3-phenyl-piperidin-3-yl)-2-methoxy-6-methylsulfanyl-4-trifluoromethyl-benzamide]
26.2 | COc1cc(C(F)(F)F)cc(SC)c1C(=O)NC1(c2ccc(F)cc2)CCCN(C)C1 (racemic) [Example 27, rac-N-[3-(4-Fluoro-phenyl)-1-methyl-piperidin-3-yl]-2-methoxy-6-methylsulfanyl-4-trifluoromethyl-benzamide]
16.5 | COc1cc(C(F)(F)F)cc(SC)c1C(=O)N[C@]1(c2ccccc2)C[C@@H](C)CN(C)C1 (racemic) [Example 121, N-((3S,5R) or (3R,5S)-1,5-Dimethyl-3-phenyl-piperidin-3-yl)-2-methoxy-6-methylsulfanyl-4-trifluoromethyl-benzamide]
31.3 | COc1cc(C(F)(F)F)cc(SC)c1C(=O)N[C@@]1(c2ccccc2)C[C@H](C)CN(C)C1 (mixture of isomers) [Example 85, N-((3R,5SR)-1,5-Dimethyl-3-phenyl-piperidin-3-yl)-2-methoxy-6-methylsulfanyl-4-trifluoromethyl-benzamide hydrochloride]
126 | COc1cc(C(F)(F)F)cc(OC)c1C(=O)N[C@@]1(c2ccccc2)CCCN(C)C1 (racemic) [Example 128, 2,6-Dimethoxy-N-(R or (S)-1-methyl-3-phenyl-piperidin-3-yl)-4-trifluoromethyl-benzamide]
